PubChem BioAssay (NCI)
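Briefly, cells in 96-well plates were exposed to five compound concentrations for 48 h, and endpoints were estimated by linear interpolation. TGI: total growth inhibition.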

What was measured:
Experiment in all cases: inhibition of tumour cell growth, NCI panel, 48 h
786-0 renal = test system: 786-0 renal
A498 renal = test system: A498 renal
A549 NSCLC = test system: A549 NSCLC
ACHN renal = test system: ACHN renal
BT-549 breast = test system: BT-549 breast
CAKI-1 renal = test system: CAKI-1 renal
CCRF-CEM leukemia = test system: CCRF-CEM leukemia
COLO 205 colon = test system: COLO 205 colon
DU-145 prostate = test system: DU-145 prostate
EKVX NSCLC = test system: EKVX NSCLC
HCC-2998 colon = test system: HCC-2998 colon
HCT-116 colon = test system: HCT-116 colon
HCT-15 colon = test system: HCT-15 colon
HL-60(TB) leukemia = test system: HL-60(TB) leukemia
HOP-62 NSCLC = test system: HOP-62 NSCLC
HOP-92 NSCLC = test system: HOP-92 NSCLC
HS 578T breast = test system: HS 578T breast
HT29 colon = test system: HT29 colon
IGROV1 ovarian = test system: IGROV1 ovarian
K-562 leukemia = test system: K-562 leukemia
KM12 colon = test system: KM12 colon
LOX IMVI melanoma = test system: LOX IMVI melanoma
M14 melanoma = test system: M14 melanoma
MALME-3M melanoma = test system: MALME-3M melanoma
MCF7 breast = test system: MCF7 breast
MDA-MB-231 breast = test system: MDA-MB-231 breast
MDA-MB-435 = test system: MDA-MB-435
MDA-N = test system: MDA-N
MOLT-4 leukemia = test system: MOLT-4 leukemia
NCI-H226 lung = test system: NCI-H226 lung
NCI-H23 lung = test system: NCI-H23 lung
NCI-H460 lung = test system: NCI-H460 lung
NCI-H522 lung = test system: NCI-H522 lung
NCI/ADR-RES ovarian = test system: NCI/ADR-RES ovarian
OVCAR-3 ovarian = test system: OVCAR-3 ovarian
OVCAR-4 ovarian = test system: OVCAR-4 ovarian
OVCAR-5 ovarian = test system: OVCAR-5 ovarian
OVCAR-8 ovarian = test system: OVCAR-8 ovarian
PC-3 prostate = test system: PC-3 prostate
RPMI-8226 leukemia = test system: RPMI-8226 leukemia
RXF 393 renal = test system: RXF 393 renal
SF-268 CNS = test system: SF-268 CNS
SF-295 CNS = test system: SF-295 CNS
SF-539 CNS = test system: SF-539 CNS
SK-MEL-2 melanoma = test system: SK-MEL-2 melanoma
SK-MEL-5 melanoma = test system: SK-MEL-5 melanoma
SK-OV-3 ovarian = test system: SK-OV-3 ovarian
SN12C renal = test system: SN12C renal
SNB-19 CNS = test system: SNB-19 CNS
SNB-75 CNS = test system: SNB-75 CNS
SW-620 colon = test system: SW-620 colon
T-47D breast = test system: T-47D breast
TK-10 renal = test system: TK-10 renal
U251 CNS = test system: U251 CNS
UACC-257 melanoma = test system: UACC-257 melanoma
UACC-62 melanoma = test system: UACC-62 melanoma
UO-31 renal = test system: UO-31 renal
SK-MEL-28 melanoma = test system: SK-MEL-28 melanoma
SR leukemia = test system: SR leukemia

CCOC(=O)/C(=C\c1ccc(C#N)cc1)C(C)=O
TGI (786-0 renal): 32.9 µM | TGI (A498 renal): 30 µM | TGI (A549 NSCLC): > 100 µM | TGI (ACHN renal): 68.6 µM | TGI (BT-549 breast): 37 µM | TGI (CAKI-1 renal): > 100 µM | TGI (CCRF-CEM leukemia): > 100 µM | TGI (COLO 205 colon): > 100 µM | TGI (DU-145 prostate): 37.7 µM | TGI (EKVX NSCLC): > 100 µM | TGI (HCC-2998 colon): 19.6 µM | TGI (HCT-116 colon): 57.3 µM | TGI (HCT-15 colon): 40 µM | TGI (HL-60(TB) leukemia): > 100 µM | TGI (HOP-62 NSCLC): > 100 µM | TGI (HOP-92 NSCLC): 50.6 µM | TGI (HS 578T breast): 88.6 µM | TGI (HT29 colon): > 100 µM | TGI (IGROV1 ovarian): 33.9 µM | TGI (K-562 leukemia): > 100 µM | TGI (KM12 colon): 43 µM | TGI (LOX IMVI melanoma): 34.5 µM | TGI (M14 melanoma): 95.1 µM | TGI (MALME-3M melanoma): 31.5 µM | TGI (MCF7 breast): 61.9 µM | TGI (MDA-MB-231 breast): 33.3 µM | TGI (MDA-MB-435): 98.3 µM | TGI (MDA-N): > 100 µM | TGI (MOLT-4 leukemia): > 100 µM | TGI (NCI-H226 lung): 89.3 µM | TGI (NCI-H23 lung): 36.7 µM | TGI (NCI-H460 lung): > 100 µM | TGI (NCI-H522 lung): 24.9 µM | TGI (NCI/ADR-RES ovarian): > 100 µM | TGI (OVCAR-3 ovarian): > 100 µM | TGI (OVCAR-4 ovarian): 97.9 µM | TGI (OVCAR-5 ovarian): > 100 µM | TGI (OVCAR-8 ovarian): 96.9 µM | TGI (PC-3 prostate): 39.1 µM | TGI (RPMI-8226 leukemia): 54.5 µM | TGI (RXF 393 renal): 30.6 µM | TGI (SF-268 CNS): 87.2 µM | TGI (SF-295 CNS): > 100 µM | TGI (SF-539 CNS): > 100 µM | TGI (SK-MEL-2 melanoma): 31.3 µM | TGI (SK-MEL-5 melanoma): 41 µM | TGI (SK-OV-3 ovarian): > 100 µM | TGI (SN12C renal): 62.8 µM | TGI (SNB-19 CNS): > 100 µM | TGI (SNB-75 CNS): 45.5 µM | TGI (SW-620 colon): > 100 µM | TGI (T-47D breast): 68.2 µM | TGI (TK-10 renal): 57.1 µM | TGI (U251 CNS): 32.7 µM | TGI (UACC-257 melanoma): 43.2 µM | TGI (UACC-62 melanoma): 17.5 µM | TGI (UO-31 renal): 28 µM

CN(C)CCCN1c2ccccc2C(C)(C)c2ccccc21
TGI (786-0 renal): 27.7 µM | TGI (A498 renal): 23 µM | TGI (A549 NSCLC): 30.7 µM | TGI (ACHN renal): 28.6 µM | TGI (BT-549 breast): 28.1 µM | TGI (CAKI-1 renal): 25.5 µM | TGI (CCRF-CEM leukemia): 53.5 µM | TGI (COLO 205 colon): 27.8 µM | TGI (DU-145 prostate): 31.2 µM | TGI (EKVX NSCLC): 32.6 µM | TGI (HCT-116 colon): 27.9 µM | TGI (HCT-15 colon): 29.8 µM | TGI (HL-60(TB) leukemia): 33.6 µM | TGI (HOP-62 NSCLC): 31.5 µM | TGI (HOP-92 NSCLC): 31.6 µM | TGI (HS 578T breast): 43.3 µM | TGI (HT29 colon): 24 µM | TGI (IGROV1 ovarian): 31.7 µM | TGI (K-562 leukemia): 27.1 µM | TGI (KM12 colon): 28.3 µM | TGI (LOX IMVI melanoma): 28.4 µM | TGI (M14 melanoma): 28.8 µM | TGI (MALME-3M melanoma): 31 µM | TGI (MCF7 breast): 28 µM | TGI (MDA-MB-231 breast): 27.8 µM | TGI (MDA-MB-435): 27.4 µM | TGI (MDA-N): 27.6 µM | TGI (MOLT-4 leukemia): 26.6 µM | TGI (NCI-H226 lung): 29.7 µM | TGI (NCI-H23 lung): 30.4 µM | TGI (NCI-H460 lung): 26.4 µM | TGI (NCI-H522 lung): 28.6 µM | TGI (NCI/ADR-RES ovarian): 31.8 µM | TGI (OVCAR-3 ovarian): 28.9 µM | TGI (OVCAR-4 ovarian): 28.2 µM | TGI (OVCAR-5 ovarian): 27.2 µM | TGI (OVCAR-8 ovarian): 29.8 µM | TGI (PC-3 prostate): 26.6 µM | TGI (RPMI-8226 leukemia): 28.5 µM | TGI (RXF 393 renal): 26.8 µM | TGI (SF-268 CNS): 27.2 µM | TGI (SF-295 CNS): 32.9 µM | TGI (SF-539 CNS): 28.4 µM | TGI (SK-MEL-2 melanoma): 30.1 µM | TGI (SK-MEL-28 melanoma): 31.4 µM | TGI (SK-MEL-5 melanoma): 26.2 µM | TGI (SK-OV-3 ovarian): 29.1 µM | TGI (SN12C renal): 27.9 µM | TGI (SNB-19 CNS): 28.8 µM | TGI (SNB-75 CNS): 24.4 µM | TGI (SR leukemia): 27.1 µM | TGI (SW-620 colon): 52.4 µM | TGI (T-47D breast): 38.7 µM | TGI (TK-10 renal): 27.2 µM | TGI (U251 CNS): 24.9 µM | TGI (UACC-257 melanoma): 23.9 µM | TGI (UACC-62 melanoma): 25.8 µM | TGI (UO-31 renal): 27.4 µM

CC(C)(C)C(=O)CP(=O)(O)O
TGI (786-0 renal): > 100 µM | TGI (A498 renal): > 100 µM | TGI (A549 NSCLC): > 100 µM | TGI (ACHN renal): > 100 µM | TGI (BT-549 breast): > 100 µM | TGI (CAKI-1 renal): > 100 µM | TGI (CCRF-CEM leukemia): > 100 µM | TGI (COLO 205 colon): > 100 µM | TGI (DU-145 prostate): > 100 µM | TGI (EKVX NSCLC): > 100 µM | TGI (HCT-116 colon): > 100 µM | TGI (HCT-15 colon): > 100 µM | TGI (HL-60(TB) leukemia): > 100 µM | TGI (HOP-62 NSCLC): > 100 µM | TGI (HOP-92 NSCLC): > 100 µM | TGI (HS 578T breast): > 100 µM | TGI (HT29 colon): > 100 µM | TGI (IGROV1 ovarian): > 100 µM | TGI (K-562 leukemia): > 100 µM | TGI (KM12 colon): > 100 µM | TGI (LOX IMVI melanoma): > 100 µM | TGI (M14 melanoma): > 100 µM | TGI (MALME-3M melanoma): > 100 µM | TGI (MCF7 breast): > 100 µM | TGI (MDA-MB-231 breast): > 100 µM | TGI (MDA-MB-435): > 100 µM | TGI (MDA-N): > 100 µM | TGI (MOLT-4 leukemia): > 100 µM | TGI (NCI-H226 lung): > 100 µM | TGI (NCI-H23 lung): > 100 µM | TGI (NCI-H460 lung): > 100 µM | TGI (NCI-H522 lung): > 100 µM | TGI (NCI/ADR-RES ovarian): > 100 µM | TGI (OVCAR-3 ovarian): > 100 µM | TGI (OVCAR-4 ovarian): > 100 µM | TGI (OVCAR-5 ovarian): > 100 µM | TGI (OVCAR-8 ovarian): > 100 µM | TGI (PC-3 prostate): > 100 µM | TGI (RPMI-8226 leukemia): > 100 µM | TGI (RXF 393 renal): > 100 µM | TGI (SF-268 CNS): > 100 µM | TGI (SF-295 CNS): > 100 µM | TGI (SF-539 CNS): > 100 µM | TGI (SK-MEL-2 melanoma): > 100 µM | TGI (SK-MEL-28 melanoma): > 100 µM | TGI (SK-MEL-5 melanoma): > 100 µM | TGI (SK-OV-3 ovarian): > 100 µM | TGI (SN12C renal): > 100 µM | TGI (SNB-19 CNS): > 100 µM | TGI (SNB-75 CNS): > 100 µM | TGI (SR leukemia): > 100 µM | TGI (SW-620 colon): > 100 µM | TGI (T-47D breast): > 100 µM | TGI (TK-10 renal): > 100 µM | TGI (U251 CNS): > 100 µM | TGI (UACC-257 melanoma): > 100 µM | TGI (UACC-62 melanoma): > 100 µM
